Data on 32 molecules can be found in PubChem BioAssay (NCI).

“And” between values parts separate entries of the source, which are not always exact repeats. Identical values can stand only once.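 All cell lines were grown in 96-well plates and treated with compound for 48 hours. GI50 is the concentration that inhibits growth by half. TGI marks complete inhibition of growth.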 Bounds are passed on as bounds.

Some test systems named below: DLD-1 colon; IGROV1 ovarian; LXFL 529 NSCLC; M19-MEL melanoma; OVCAR-8 ovarian; DMS 273 small cell lung; DU-145 prostate; PC-3 prostate.
What all share (assay): growth of human tumour cells (NCI), 48 h

`CC1=C(C(=O)Nc2ccc([N+](=O)[O-])cc2)C(c2ccco2)C(C(=O)Nc2ccc([N+](=O)[O-])cc2)=C(C)N1`: the TGI with DLD-1 colon is > 100 µM; with IGROV1 ovarian it was > 100 µM; with LXFL 529 NSCLC, > 100 µM; in the assay with M19-MEL melanoma, 77.2 µM; with OVCAR-8 ovarian it was > 100 µM.

As for `Cc1cc(Br)cc(C)c1NC(=O)C(=O)CC(=O)c1sc(-n2nc(-c3ccccc3)cc2-c2ccccc2)nc1C`, the TGI with DLD-1 colon, with DMS 273 small cell lung, in the assay on IGROV1 ovarian, in the assay with LXFL 529 NSCLC, in the assay with M19-MEL melanoma and with OVCAR-8 ovarian was > 100 µM throughout.

On to `O/N=C1/C(=C/c2ccc(F)cc2)CCCC1C(NO)c1ccc(F)cc1` (stereo unspecified), for which the TGI in the assay with DLD-1 colon, in the assay with DMS 273 small cell lung, in the assay with IGROV1 ovarian, with LXFL 529 NSCLC, with M19-MEL melanoma and in the assay on OVCAR-8 ovarian was > 100 µM each time.

On to `Cn1ncc2cc3c(Nc4ccc(Cl)cc4)cccc3nc21`, for which the TGI in the assay with DLD-1 colon is > 100 µM; in the assay on IGROV1 ovarian, 38.8 µM; in the assay with LXFL 529 NSCLC, 42.7 µM; in the assay with M19-MEL melanoma, 43.9 µM; with OVCAR-8 ovarian, 76.1 µM.

With `CCCCCCC(=O)C/C(CCC(=O)N(Cc1ccccc1)Cc1ccccc1)=N\Nc1ccc([N+](=O)[O-])cc1[N+](=O)[O-]`, the TGI with DLD-1 colon, with DMS 273 small cell lung, with IGROV1 ovarian, in the assay with LXFL 529 NSCLC, with M19-MEL melanoma and with OVCAR-8 ovarian was > 100 µM in each case.

Regarding `O=C1C2=C(c3ccccc31)C(c1ccc(Cl)cc1)N1C(=O)CCSC1=N2` (stereo unspecified), the TGI with DLD-1 colon, with DMS 273 small cell lung, with IGROV1 ovarian, in the assay on LXFL 529 NSCLC and with M19-MEL melanoma was > 100 µM throughout.

`C=C(c1ccccc1N)[C@@]1(O)C[C@H](/C(=C\C)CO)C[C@@H]1NCc1ccccc1`: the TGI in the assay with DMS 273 small cell lung was 84.5 µM; in the assay with IGROV1 ovarian, > 100 µM; in the assay with M19-MEL melanoma, 62.1 µM; in the assay with OVCAR-8 ovarian, 53.2 µM.

For `S=c1[nH]nc(COc2ccc(Cl)cc2)o1`, the TGI in the assay with DLD-1 colon, in the assay with DMS 273 small cell lung, with IGROV1 ovarian, in the assay on LXFL 529 NSCLC, in the assay on M19-MEL melanoma and with OVCAR-8 ovarian was > 100 µM each time.

For `CC(Cl)(/C=C/Cl)C(Cl)/C=C/C(Cl)(CCl)CBr` (stereo unspecified), the TGI in the assay with DLD-1 colon was determined as 12.5 µM; in the assay with DMS 273 small cell lung, 17.1 µM; in the assay on IGROV1 ovarian, 25.1 µM; with LXFL 529 NSCLC, 2.5 µM; in the assay with M19-MEL melanoma, 13.5 µM; with OVCAR-8 ovarian, 13.2 µM.

For `CC(C)=CC(=O)CC(=O)C(=O)Nc1ccc(C)c(C)c1`, the TGI with DLD-1 colon, in the assay on DMS 273 small cell lung, with IGROV1 ovarian, in the assay on LXFL 529 NSCLC and in the assay with M19-MEL melanoma was > 100 µM each time.

On to `Cn1nc(-c2ccccc2NC(=O)C(F)(F)F)c(=O)n(C)c1=S`, for which the TGI in the assay with DLD-1 colon was > 100 µM; with DMS 273 small cell lung, > 100 µM; in the assay on IGROV1 ovarian, > 100 µM; in the assay with LXFL 529 NSCLC it was > 100 µM; in the assay with M19-MEL melanoma, 48.7 µM; in the assay with OVCAR-8 ovarian, 67.7 µM.

Take `CC1=C(C(=O)Nc2ccccc2)C(c2ccc3c(c2)OCO3)C(C(=O)Nc2ccccc2)=C(C)N1`: the TGI with DLD-1 colon is > 100 µM; in the assay on DMS 273 small cell lung, 86.5 µM; with IGROV1 ovarian it was > 100 µM; in the assay with LXFL 529 NSCLC, > 100 µM; in the assay on M19-MEL melanoma it was > 100 µM; in the assay on OVCAR-8 ovarian, > 100 µM.

Turning to `CCOC(=O)CCC(NC(=O)c1ccc(N=Cc2nc3cc(C(F)(F)F)ccc3nc2-c2ccccc2)cc1)C(=O)OCC` (stereo unspecified), the GI50 with DLD-1 colon, in the assay with IGROV1 ovarian, in the assay with LXFL 529 NSCLC, in the assay on M19-MEL melanoma and in the assay with OVCAR-8 ovarian was > 100 µM throughout. Besides, the TGI in the assay with DLD-1 colon is > 100 µM; in the assay on DMS 273 small cell lung it was > 100 µM; with DU-145 prostate it was 50 µM; in the assay on IGROV1 ovarian, 50 µM and > 100 µM; in the assay with LXFL 529 NSCLC, 50 µM and > 100 µM; in the assay on M19-MEL melanoma it was > 100 µM. For the same molecule, the TGI in the assay on OVCAR-8 ovarian is 27.4 µM and > 100 µM; in the assay with PC-3 prostate it was > 50 µM.

For the molecule `CC(=O)[CH-]C(=O)c1ccccc1.CC(=O)[CH-]C(=O)c1ccccc1.CCN(CC)CC[O-].CCN(CC)CC[O-].Cl.[Ti+4]`, the GI50 in the assay with IGROV1 ovarian is 45.8 µM; with LXFL 529 NSCLC, 22.2 µM; in the assay on M19-MEL melanoma, 17.6 µM; in the assay on OVCAR-8 ovarian, 38.8 µM. Further, the TGI was > 100 µM in the assay on IGROV1 ovarian, 68.3 µM with LXFL 529 NSCLC, 52.2 µM in the assay with M19-MEL melanoma and > 100 µM in the assay on OVCAR-8 ovarian.

As for `NNC(=O)/C(=C/c1cccc([N+](=O)[O-])c1)NC(=O)c1ccccc1`, the TGI with DLD-1 colon, in the assay on DMS 273 small cell lung, with IGROV1 ovarian, in the assay on LXFL 529 NSCLC, in the assay with M19-MEL melanoma and in the assay on OVCAR-8 ovarian was > 100 µM in each case.

On to `CNC(=O)OCc1nc(SC(C)C)n(C)c1COC(=O)NC`, for which the TGI in the assay on DLD-1 colon, in the assay with DMS 273 small cell lung, in the assay on IGROV1 ovarian, with LXFL 529 NSCLC, in the assay on M19-MEL melanoma and in the assay with OVCAR-8 ovarian was > 100 µM in each case.

Turning to `COc1c(OC(C)=O)ccc(/C=C2\N=C(C)OC2=O)c1[N+](=O)[O-]`, the TGI in the assay with DLD-1 colon, in the assay with DMS 273 small cell lung, with IGROV1 ovarian, in the assay on LXFL 529 NSCLC, in the assay on M19-MEL melanoma and with OVCAR-8 ovarian was > 100 µM each time.

On to `C/C(=N\NC(=S)Nc1ccc(C(=O)O)cc1)c1ccccn1`, for which the TGI in the assay with DLD-1 colon is > 100 µM; in the assay on DMS 273 small cell lung, 51.8 µM; with IGROV1 ovarian it was 85.8 µM; with LXFL 529 NSCLC it was > 100 µM; in the assay with M19-MEL melanoma, 49.7 µM; in the assay with OVCAR-8 ovarian it was 45.5 µM.

For `CCOC(=O)C1C=C2O[C@@H]3OC4(CCCCC4)O[C@@H]3C2[C@H]2C(=O)C=CC(=O)[C@@]12C(=O)OC` (stereo partly specified), the TGI with DLD-1 colon was 35.1 µM; in the assay on DMS 273 small cell lung, 22.9 µM; in the assay with IGROV1 ovarian, 27.6 µM; in the assay with LXFL 529 NSCLC, 22.9 µM; in the assay on M19-MEL melanoma, 31.4 µM; with OVCAR-8 ovarian, 13.9 µM.

For `CCOC(=O)Cc1c(Cc2[nH]c(C(=O)OCc3ccccc3)c(CC(=O)OCC)c2CC(=O)OCC)[nH]c(C(=O)OCc2ccccc2)c1CC(=O)OCC`, the TGI in the assay with IGROV1 ovarian, in the assay with LXFL 529 NSCLC, with M19-MEL melanoma and in the assay on OVCAR-8 ovarian was > 100 µM in each case.

As to `CCCCN(CCCC)C(=O)C(=O)CC(=O)c1ccc(Br)cc1`, the TGI in the assay with DLD-1 colon, in the assay on DMS 273 small cell lung, in the assay with IGROV1 ovarian, in the assay with LXFL 529 NSCLC, with M19-MEL melanoma and in the assay with OVCAR-8 ovarian was > 100 µM throughout.

Turning to `N[C@H]1C2C3CC4C5CC(C42)C1(c1ccccc1)C53` (stereo partly specified), the TGI in the assay on DLD-1 colon, in the assay on DMS 273 small cell lung, in the assay on IGROV1 ovarian, in the assay with LXFL 529 NSCLC, in the assay with M19-MEL melanoma and in the assay with OVCAR-8 ovarian was > 100 µM each time.

As for `Cc1cc(C)nc(NS(=O)(=O)c2ccc(Nc3c4ccccc4nc4c(C(=O)Nc5ccc(S(N)(=O)=O)cc5)cccc34)cc2)n1`, the TGI in the assay on DLD-1 colon, in the assay on DMS 273 small cell lung, in the assay with IGROV1 ovarian, in the assay on LXFL 529 NSCLC, with M19-MEL melanoma and in the assay with OVCAR-8 ovarian was > 100 µM in each case.

`Cc1c(NC(=O)C(=O)N=NC(=O)c2ccncc2)c(O)c2ccccc2c1O`: the TGI came to 31.6 µM in the assay on DLD-1 colon; 23.2 µM in the assay on DMS 273 small cell lung; 28.5 µM in the assay on IGROV1 ovarian; 28.2 µM with LXFL 529 NSCLC; 3.23 µM in the assay on M19-MEL melanoma; 52.1 µM in the assay on OVCAR-8 ovarian.

As for `CCOC(=O)c1cccc(=O)c(C(=O)OCC)c1`, the TGI in the assay on DLD-1 colon, with DMS 273 small cell lung, in the assay on IGROV1 ovarian, in the assay on LXFL 529 NSCLC, with M19-MEL melanoma and with OVCAR-8 ovarian was > 100 µM throughout.

Take `O=C1C2=C(c3ccccc31)C(c1cccc(Cl)c1)NC(=S)N2` (stereo unspecified): the TGI in the assay on DLD-1 colon, in the assay with DMS 273 small cell lung, in the assay with IGROV1 ovarian, in the assay with LXFL 529 NSCLC, with M19-MEL melanoma and in the assay on OVCAR-8 ovarian was > 100 µM in each case.

As to `CC(=O)Oc1c(C)n(CCCl)ccc1=O`, the TGI in the assay on DLD-1 colon, in the assay with DMS 273 small cell lung, with LXFL 529 NSCLC, in the assay on M19-MEL melanoma and in the assay on OVCAR-8 ovarian was > 100 µM each time.

Take `COc1ccc(-c2oc3cc(O)c(OC)c(O)c3c(=O)c2OC2OC(CO)C(O)C(O)C2O)cc1` (stereo unspecified): the TGI in the assay with DLD-1 colon, with DMS 273 small cell lung, with IGROV1 ovarian, in the assay with LXFL 529 NSCLC, in the assay with M19-MEL melanoma and in the assay on OVCAR-8 ovarian was > 100 µM each time.

Turning to `C/C(=N\N(C)C)c1sc(-n2nc(-c3ccccc3)cc2-c2ccccc2)nc1C`, the TGI in the assay with DLD-1 colon, in the assay with DMS 273 small cell lung, in the assay with IGROV1 ovarian, in the assay on LXFL 529 NSCLC, with M19-MEL melanoma and in the assay on OVCAR-8 ovarian was > 100 µM each time.

`CCOC(=O)/N=c1\ss/c(=N\C(=S)N(C)C)n1-c1ccccc1`: the GI50 with DLD-1 colon is > 100 µM; with DMS 273 small cell lung, 77.1 µM; in the assay on IGROV1 ovarian, > 100 µM; in the assay on M19-MEL melanoma it was > 100 µM; with OVCAR-8 ovarian, > 100 µM. Further, the TGI in the assay with DLD-1 colon, in the assay with DMS 273 small cell lung, in the assay with IGROV1 ovarian, in the assay with LXFL 529 NSCLC and in the assay on OVCAR-8 ovarian was > 100 µM throughout.

For the molecule `CC1=COC(=O)c2ccccc2N1`, the TGI with DLD-1 colon, in the assay on DMS 273 small cell lung, in the assay with IGROV1 ovarian, with LXFL 529 NSCLC, in the assay on M19-MEL melanoma and with OVCAR-8 ovarian was > 100 µM in each case.

On to `COc1ccc(/C=C2/CCCC/C2=N/O)cc1`, for which the TGI with DLD-1 colon, in the assay with DMS 273 small cell lung, in the assay with IGROV1 ovarian, with LXFL 529 NSCLC, in the assay with M19-MEL melanoma and with OVCAR-8 ovarian was > 100 µM in each case.
